Measurements published in PubChem BioAssay AID2060497 (Molecular Pharmacology Branch, DTP, NCI, 2025).
pIC50: −log10 of the molar value. Values joined by “and” are separate entries in the source; they are usually repeats but may differ in a detail not shown here. Equal entries are not always repeated.

Test system: 317291-083-R-J1-PDC complex spheroids, viability
Assay: Anticancer human tumor 317291-083-R-J1-PDC patient-derived soft tissue sarcoma cell line growth inhibition [GQUAD]
Conditions: for viability, T/C: stronger effect = lower value
From the text: DNA G-quadruplex Stabilizer Agents in Combinations in Complex Spheroids
A high-throughput screen of multi-cell type tumor spheroids was designed to identify active combinations of DNA G-quadruplex stabilizer agents and targeted small molecules. Complex spheroids include a stromal component modeled by human endothelial cells (HUVEC) and fibroblasts modeled by human mesenchymal stem cells (MSCs). The concentration ranges selected for each drug and investigational agent were based upon clinically achievable concentrations if the clinical Cmax of the agent was known.
Compounds. The drugs and investigational agents: pidnarulex (CX-5461; NSC782164), APTO-253 (NSC789042), BRACO-19 (NSC847499), peposertib (NSC802822), ceralasertib (NSC780249), elimusertib (NSC800525), camonsertib (NSC841442), AZD-1390 (NSC803789), olaparib (NSC753686), talazoparib (NSC767125), ART-558 (NSC835418), sotorasib (NSC818433), MRTX-1133 (NSC836407), SN-38 (NSC673596), topotecan (NSC609699), etoposide (NSC141540), doxorubicin (NSC123127), gemcitabine (NSC613327), 5-fluorouracil (NSC19893), paclitaxel (NSC125973), vemurafenib (NSC761431), panobinostat (NSC761190), R-306465 (JNJ-16241199; NSC773264), adavosertib (NSC754352), TP-3654 (NSC805149), carboplatin (NSC241240), KSQ-4279 (NSC840948), and staurosporine (NSC755774) were obtained from the National Cancer Institute (NCI) Developmental Therapeutics Program Chemical Repository (34). The FDA-approved anticancer drug set is available from the NCI Developmental Therapeutics Program. […] The stock solutions were prepared in dimethyl sulfoxide (DMSO, Sigma-Aldrich, St. Louis, MO, cat. D2650) at 800-fold the tested concentration and stored at -70 degrees C prior to their use. All drugs and investigational agents were tested over a range starting from a high concentration at or near the clinical Cmax and decreasing in half-log increments. If the clinical Cmax for an agent had not been determined, the highest concentration tested was 10 microM.
2.3 Cell Culture. All cells were maintained in an incubator at 37 degrees C and 5% CO2 with 95% humidity. The PDC lines were cultured according to standard operating procedures established by the NCI PDMR. All PDCs were thawed and cultured in Matrigel-coated flasks prepared with a working solution of 1X Ham's F-12 nutrient mix, without supplementation (Invitrogen, cat. 11765054), 100 U/mL penicillin-streptomycin (Invitrogen, cat. 15140122), and 2.5% Matrigel (Corning Inc., cat. 354248) for the first three passages. The 857933-349-R-J2-PDC line was cultured in 6C/Colon 1B media, which includes advanced DMEM/F-12 (Thermo Fisher Scientific, cat. 12634028), 10 mM HEPES (Thermo Fisher Scientific, cat. 15630080), 1X GlutaMAX supplement (Thermo Fisher Scientific, cat. 35050061), 0.1 mg/mL primocin (InvivoGen, cat. ant-pm-2), 10% defined fetal bovine serum, heat inactivated (HyClone Laboratories Inc., cat. SH30070.03HI), 50% L-WRN conditioned media (ATCC, cat. CRL-3276), 1.25 mM N-Acetyl-L-cysteine (Sigma-Aldrich, cat. A9165), 10 mM nicotinamide (Sigma-Aldrich, cat. N0636), 1X B-27 supplement (Thermo Fisher Scientific, cat. 17504044), 1X N-2 supplement (Thermo Fisher Scientific, cat. 17502048), 10 microM Y-27632 dihydrochloride (Tocris Bioscience, cat. 1254), and 50 ng/mL human EGF recombinant protein (Thermo Fisher Scientific, cat. PHG0311). The 485176-168-R4-J1-PDC line was cultured in Panc media, which includes all 6C/Colon 1B media components plus 100 ng/mL human FGF-10 (Thermo Fisher Scientific, cat. 100-26), 500 nM SB-431542 (Selleckchem, cat. S1067), and gastrin (Tocris, cat. 3006).
[…]
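Note: spheroids exposed to compounds for one week before readout.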
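Throughout, for viability, T/C: percent viability relative to DMSO vehicle wells taken as 100%.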

**Q.** What does the source list for `COc1cc(C2c3cc4c(cc3C(OC3OC5COC(C)OC5C(O)C3O)C3COC(=O)C23)OCO4)cc(OC)c1O` (stereo not given)?
**A.** viability, T/C (compound 0.0316 µM): 94.7% and 99.8% (2×); viability, T/C (compound 0.1 µM): 96.7% and 94.9% and 84.3%; viability, T/C (compound 0.316 µM): 48.8% and 64% and 53.8%; viability, T/C (compound 1 µM): 22.1% and 20.2% and 30.3%; viability, T/C (compound 3.16 µM): 15.9% and 15.7% and 15.8%; viability, T/C (compound 10 µM): 12% and 11.2% and 17%; pIC50 (curve of compound): 6.51 and 6.34 and 6.42

**Q.** What does the source list for `CC[C@@]1(O)C(=O)OCc2c1cc1n(c2=O)Cc2cc3c(CN(C)C)c(O)ccc3nc2-1`?
**A.** viability, T/C (compound 0.000999 µM): 116% and 105% and 101%; viability, T/C (compound 0.00316 µM): 84% and 86.8% and 104%; viability, T/C (compound 0.00999 µM): 94.2% and 83.8% and 102%; viability, T/C (compound 0.0316 µM): 70.6% and 71.7% and 80.6%; viability, T/C (compound 0.0999 µM): 22.3% and 25% and 25.1%; viability, T/C (compound 0.316 µM): 14% and 20.4% and 10.5%; pIC50 (curve of compound): 7.29 and 7.27 and 7.22

**Q.** Which viability, T/C (compound 0.0316 µM) does the source give for `CC1COCCN1c1cc(-c2ccnn2C)c2ccnc(-c3ccn[nH]3)c2n1` (stereo not given) here?
**A.** Its viability, T/C is 93.3% and 80.4% and 110%.

**Q.** And the viability, T/C (compound 0.1 µM)?
**A.** The viability, T/C was 40.7% and 25.8% and 39.3%.

**Q.** What about the viability, T/C (compound 0.316 µM) of the same molecule?
**A.** The viability, T/C was 20.1% and 22% and 14.4%.

**Q.** And the viability, T/C (compound 1 µM)?
**A.** The viability, T/C was 20.6% and 15.7% and 21.6%.

**Q.** What about the viability, T/C (compound 3.16 µM) of the same molecule?
**A.** The viability, T/C was 15.3% and 14.9% and 14.8%.

**Q.** And the viability, T/C (compound 10 µM)?
**A.** The viability, T/C was 12.3% and 12.6% and 11.2%.

**Q.** And the pIC50 (curve of compound)?
**A.** Its pIC50 is 7.09 and 7.21 and 7.07.

**Q.** Which viability, T/C (compound 0.0316 µM) does the source give for `COc1cccc2c1C(=O)c1c(O)c3c(c(O)c1C2=O)CC(O)(C(=O)CO)CC3OC1CC(N)C(O)C(C)O1` (stereo not given) here?
**A.** Its viability, T/C is 77.5% and 82.5% and 86.8%.

**Q.** What about the viability, T/C (compound 0.1 µM) of the same molecule?
**A.** The viability, T/C was 35% and 28.7% and 27.3%.

**Q.** And the viability, T/C (compound 0.316 µM)?
**A.** The viability, T/C was 20% and 26.3% and 22.3%.

**Q.** And the viability, T/C (compound 1 µM)?
**A.** Its viability, T/C is 8.85% and 15.2% and 15.3%.

**Q.** And the viability, T/C (compound 3.16 µM)?
**A.** The viability, T/C was 3.09% and 0.8% and 0.76%.

**Q.** What about the viability, T/C (compound 10 µM) of the same molecule?
**A.** Its viability, T/C is 4.03% and 0.72% and 2.93%.

**Q.** What about the pIC50 (curve of compound) of the same molecule?
**A.** Its pIC50 is 7.16 and 7.15.

**Q.** Which results are given for `O=c1[nH]cc(F)c(=O)[nH]1` + CN(C)c1ccc(Nc2c3ccc(NC(=O)CCN4CCCC4)cc3nc3cc(NC(=O)CCN4CCCC4)ccc23)cc1?
**A.** pIC50 (curve of first compound, second compound 0.0316 µM): 5.63; pIC50 (curve of first compound, second compound 0.1 µM): 5.61; pIC50 (curve of first compound, second compound 0.316 µM): 5.75; pIC50 (curve of first compound, second compound 1 µM): 7.50; pIC50 (curve of first compound, second compound 3.16 µM): > 7.50; pIC50 (curve of first compound, second compound 10 µM): > 7.50; viability, T/C (second compound 0.0316 µM, first compound 0.0316 µM): 91.6%; viability, T/C (second compound 0.0316 µM, first compound 0.1 µM): 83.3%; viability, T/C (second compound 0.0316 µM, first compound 0.316 µM): 101%; viability, T/C (second compound 0.0316 µM, first compound 1 µM): 74.3%; viability, T/C (second compound 0.0316 µM, first compound 3.16 µM): 43.5%; viability, T/C (second compound 0.0316 µM, first compound 10 µM): 38.5%; viability, T/C (second compound 0.1 µM, first compound 0.0316 µM): 110%; viability, T/C (second compound 0.1 µM, first compound 0.1 µM): 106%; viability, T/C (second compound 0.1 µM, first compound 0.316 µM): 103%; viability, T/C (second compound 0.1 µM, first compound 1 µM): 69.7%; viability, T/C (second compound 0.1 µM, first compound 3.16 µM): 46.2%; viability, T/C (second compound 0.1 µM, first compound 10 µM): 36.6%; viability, T/C (second compound 0.316 µM, first compound 0.0316 µM): 89.4%; viability, T/C (second compound 0.316 µM, first compound 0.1 µM): 74.7%; viability, T/C (second compound 0.316 µM, first compound 0.316 µM): 83.2%; viability, T/C (second compound 0.316 µM, first compound 1 µM): 56.4%; viability, T/C (second compound 0.316 µM, first compound 3.16 µM): 42.1%; viability, T/C (second compound 0.316 µM, first compound 10 µM): 29.5%; viability, T/C (second compound 1 µM, first compound 0.0316 µM): 53.2%; viability, T/C (second compound 1 µM, first compound 0.1 µM): 43.2%; viability, T/C (second compound 1 µM, first compound 0.316 µM): 51.1%; viability, T/C (second compound 1 µM, first compound 1 µM): 21.3%; viability, T/C (second compound 1 µM, first compound 3.16 µM): 29.4%; viability, T/C (second compound 1 µM, first compound 10 µM): 23.3%; viability, T/C (second compound 3.16 µM, first compound 0.0316 µM): 36.6%; viability, T/C (second compound 3.16 µM, first compound 0.1 µM): 27.3%; viability, T/C (second compound 3.16 µM, first compound 0.316 µM): 35.1%; viability, T/C (second compound 3.16 µM, first compound 1 µM): 26.8%; viability, T/C (second compound 3.16 µM, first compound 3.16 µM): 27.2%; viability, T/C (second compound 3.16 µM, first compound 10 µM): 22.6%; viability, T/C (second compound 10 µM, first compound 0.0316 µM): 7.27%; viability, T/C (second compound 10 µM, first compound 0.1 µM): 5.52%; viability, T/C (second compound 10 µM, first compound 0.316 µM): 17%; viability, T/C (second compound 10 µM, first compound 1 µM): 11.3%; viability, T/C (second compound 10 µM, first compound 3.16 µM): 9.24%; viability, T/C (second compound 10 µM, first compound 10 µM): 7.86%
